In this assay the test system is H1299 cells. The assay is described as follows: β-gal expression by X-gal staining after Ad/CMV/β-gal infection of agent-treated cells. The format is cell-based, human. The note with it: for Enhancement of β-gal gene expression after treatment with antineoplastic agent: wide range of drug concentrations, 24 h, infected with Ad/CMV/β-gal 48 hours after drug removal. The procedure:
Gene Delivery Protocol: In vitro gene delivery was performed by incubating cells in six-well plates (Falcon Plastics, Lincoln Park, N.J.) for two hours with Adv/CMV/β-gal in appropriate medium supplemented with 2% FCS. The multiplicity of infection (MOI: number of viral particles per target cell) was based on cell counts of untreated wells. Fresh, complete medium with the appropriate concentration of FCS was then added to the wells at the end of the infection period and cells were then incubated for 20 hours at 37° C., 5% CO2. After washing the cells with ice cold PBS, the cells were fixed with ice-cold 1.25% glutaraldehyde and stained with X-gal (5-bromo-4-chloro-3-indolyl-β-d-galactoside; Gibco BRL) as previously described (MacGregor et al., 1987). The transduction efficiency by Adv/CMV/β-gal was determined by the percentage of positive stained cells (blue) for β-galactosidase activity (1000 cells counted per well).
Time Course and Dose Response: To determine the time course of enhancement, H1299 and H460 cells were seeded in 6-well plates (2×10^5 cells/2 mls/well). After an overnight incubation period (37° C., 5% CO2), the initial medium was replaced with freshly prepared media (2 ml) containing 0.062 μg/ml CDDP (Sigma Chemicals, St. Louis, Mo.) (CDDP was prepared fresh by dissolving in distilled water) and the cells were then incubated for 24 hours at 37° C., with 5% CO2. CDDP-treated cells were then washed twice with PBS and subsequently infected with Ad/CMV/β-gal (MOI=1 for H1299 and MOI=5 for H460) on days 0, 1, 2, 3, 4, 5 or 6 following CDDP removal, to determine the time point at which maximal enhancement of expression was occurring. To establish the dose of CDDP needed to produce maximum enhancement, the cells were treated with different concentrations of CDDP (serial, 1:4 dilutions, ranging from 4 μg/ml to 0.0002 μg/ml, 5 ml per 60 mm dish) for 24 hours and subsequently incubated with Ad/CMV/β-gal 48 hours after removal of CDDP. To study if exposure of malignant cells to different classes of antineoplastic agents would lead to a similar elevation of gene expression, H1299 cells were treated with vincristine (Eli Lilly and Co, Indianapolis, Ind.), methotrexate (Lederle Pharmaceuticals, Pearl River, N.Y.), 5-fluorouracil (SoloPak Laboratories, Elk Grove Village, Ill.), epotoside (Bristol Laboratories, Princeton, N.J.) and transplatin (the isomer of CDDP that has no anticancer activity, Sigma Chemical, St. Louis, Mo.) in the similar fashion as CDDP treatment and then infected with Ad/CMV/β-gal 48 hours after removal of drug-containing media. H1299 cells were treated with 2, 4, 8, or 16 Grey (Gy) of ionizing irradiation and then similarly infected 72 hours after irradiation. Untreated cells that were similarly infected, served as controls.

Consider `O=c1[nH]cc(F)c(=O)[nH]1` [5-fluorouracil], for which the “Enhancement of β-gal gene expression after treatment with antineoplastic agent” value (“Enhancement of β-gal gene expression” for short) is “did not result in enhanced gene expression”.

Turning to `COc1cc([C@@H]2c3cc4c(cc3[C@@H](O[C@@H]3O[C@@H]5CO[C@@H](C)O[C@H]5[C@H](O)[C@H]3O)[C@H]3COC(=O)[C@H]23)OCO4)cc(OC)c1O` [VP-16, etoposide], the “Enhancement of β-gal gene expression” value is “enhanced gene expression”. The “Enhancement of β-gal expression (FIG. 3)” value (drugs at 0.062 μg/ml or irradiated with 8 Greys, stained 24 hrs after infection) is “Enhancement of β-gal expression was observed”.

For the molecule `CN(Cc1cnc2nc(N)nc(N)c2n1)c1ccc(C(=O)N[C@@H](CCC(=O)O)C(=O)O)cc1` [methotrexate], the “Enhancement of β-gal gene expression” value is given as “did not result in enhanced gene expression”.

`N.N.[Cl][Pt+2][Cl]` [transplatinum]: the “Enhancement of β-gal gene expression” value was “did not result in enhanced gene expression”.

On to `CC[C@]1(O)C[C@H]2CN(CCc3c([nH]c4ccccc34)[C@@](C(=O)OC)(c3cc4c(cc3OC)N(C=O)[C@H]3[C@@](O)(C(=O)OC)[C@H](OC(C)=O)[C@]5(CC)C=CCN6CC[C@]43[C@@H]65)C2)C1` [vincristine], for which the “Enhancement of β-gal gene expression” value is listed as “did not result in enhanced gene expression”.
